Data as given in patent publication US20230125667A1, “NOVEL TDZD ANALOGS AS AGENTS THAT DELAY, PREVENT, OR REVERSE AGE-ASSOCIATED DISEASES AND AS ANTI-CANCER AND ANTILEUKEMIC AGENTS” (United States Government as represented by the Department …, priority 2020, published 2023).

Columns and labels:
SH-SY5Y-APPSw cells = assay: Thioflavin-T staining of amyloid-like aggregates in SH-SY5Y-APPSw cells; format: cell-based, human
Method: Several TDZD-conjugated drugs (putative GSK-3 inhibitors) were evaluated for their ability to reduce accumulation of protein aggregates, and for protection against aggregation-associated end-points in the following model systems: (i.) SH-SY5Y-APPSw, a neuroblastoma cell line expressing the Swedish mutation of Amyloid Precursor Protein (APPSw), and thus predisposed to form β-amyloid deposits; (ii.) C. elegans strain CL4176, a model of Alzheimer-like amyloidopathy that can be induced to express human Aβ1-42 in muscle, or may express it at a lower level without induction; (iii.) C. elegans strain AM141, a model of Huntington-like polyglutamine aggregation that constitutively expresses Q40::YFP (a tract of 40 glutamines fused in-frame to yellow fluorescent protein) in muscle cells and forms aggregates progressively with adult aging. The TDZD analog PNR-962 (a putative GSK-3 inhibitor) and other related compounds (not shown) were protective in all aggregation assays.
First, the effects of TDZD analogues were tested on the human neuroblastoma cell line SH-SY5Y-APPSw, a model of Alzheimer-like amyloid aggregation expressing the “Sw” mutant form of Amyloid Precursor Protein, APP. These drugs all produced significant reductions in amyloid-like aggregates, by 30-50% as quantified by thioflavin-T staining intensity (data for PNR-962 are shown in FIG. 4). Modified TDZD-8 analogues PNR-962 and BSK-179 are more anti-aggregative than TDZD-8, lowering total amyloid-staining intensity by a further 14% (data not shown).
Following previously described experimental procedures (Liu, et al. (2005). S100B-induced microglial and neuronal IL-1 expression is mediated by cell type-specific transcription factors. Journal of Neurochemistry. 92(3): 546-553), SH-SY5Y-APPSw neuronal cells expressing an aggregation-prone double mutant of amyloid precursor protein (APPSw) were cultured in DMEM plus 10% (v/v) fetal bovine serum (FBS) at 37° C. Cells were suspended in trypsin/EDTA and rinsed in PBS prior to re-plating or harvesting. […] Human neuroblastoma cells were treated with PNR962, either simultaneous with sAPPα or beginning 1 h prior to sAPPα addition (pre-treatment) in order to ascertain the protective benefits of PNR962 on protein aggregation in human neuroblastoma cell lines. A similar experimental procedure was followed to examine the effect of treatment with these analogs on non-neuronal human cells, exposing human embryonic kidney cells (HEK) that express tau-like aggregates (found in AD-associated diseases) to 0.001, 0.01, and 1-μM doses of TDZD-8 and its analogues.
To observe the protective effects of the novel TDZD analogs on protein aggregation in SY5Y-APPSw cells, using DMEM medium containing 10% fetal calf serum in […], cells were cultured at 37′C for 26 hrs allowing cells to approximately double in number. After 48 h of cell incubation in the presence of specified concentrations of drug or vehicle, cells were fixed 15 min in formaldehyde (4% v/v), washed, and stained 20 min at ˜22° C. in a dark container with 0.1% w/v Thioflavin T mixed with DAPI (1 μg/ml; Life Technologies, Grand Island, N.Y., USA). […] The intensity of aggregate/thioflavin-T fluorescence per field was quantified via an Image J plug-in developed in-house, and normalized to the number of DAPI^+ nuclei counted per field, to obtain an average intensity of aggregates per cell for each treatment.

C. elegans strain CL4176 = assay: Amyloid-associated paralysis in C. elegans strain CL4176; format: in vivo; conditions: after induction of Aβ1-42 in muscle (FIG. 5)
GSK3β = biological target: T1, GSK3β (Homo sapiens, UniProt P49841); assay: GSK3β activity (kinase) assay in vitro; format: biochemical; conditions: dose-response curves (FIG. 21)
T1 construct: purchased BPS Bioscience
T1 sequence (P49841 whole entry): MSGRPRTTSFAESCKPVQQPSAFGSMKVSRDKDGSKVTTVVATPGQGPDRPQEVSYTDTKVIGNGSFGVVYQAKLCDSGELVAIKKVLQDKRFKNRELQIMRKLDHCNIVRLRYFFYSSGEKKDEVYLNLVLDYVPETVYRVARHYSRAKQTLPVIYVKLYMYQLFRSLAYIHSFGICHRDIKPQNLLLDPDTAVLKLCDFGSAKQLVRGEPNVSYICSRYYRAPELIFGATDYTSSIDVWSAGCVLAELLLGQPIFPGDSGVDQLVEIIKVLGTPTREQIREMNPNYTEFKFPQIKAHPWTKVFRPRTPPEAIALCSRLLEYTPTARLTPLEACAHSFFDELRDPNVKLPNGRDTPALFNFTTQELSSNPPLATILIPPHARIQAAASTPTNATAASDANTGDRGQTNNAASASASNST
Method: The GSK3β activity assay kit (BPS Bioscience) was used, with modification of the manufacturer's protocol. The assay was done in three replicates at three doses (0.01, 0.1, and 1 μM) of each inhibitor (TDZD8, PNR962) in a 96-well plate, using 1% DMSO (final solvent concentration) as the drug-free control. The kinase assay reaction was incubated for 45 minutes at 30′C and Kinase-Glo Max Assay (Promega) was then added and incubated for 15 minutes at room temperature. A negative control contained all the reagents except the test inhibitors and GSK3β enzyme and positive control contained all reagents except the test inhibitor. SpectraMax M3 (Molecular Devices, LLC) was used as a microplate reader. The luminescence negative control reading was used as 0% activity, positive control reading was used as 100% activity and kinase assay was based on the fact that all the reading in wells with test inhibitor, should lie between these values of negative control and positive controls. GSK3β inhibitions were calculated after subtracting negative control values from all the wells and graphs were generated using GraphPad Prism.
The best predicted inhibitors were synthesized, and screened in both human neuronal cells, and in C. elegans models of neurodegeneration. These compounds were also tested for their ability to inhibit GSK3β activity in vitro.

tau hyperphosphorylation = assay: Tau hyperphosphorylation in rat cortical cells; format: cell-based; conditions: FIG. 23
Method: Microtubule assembly involves stable tau binding to other proteins in the complex, including tubulin. Hyperphosphorylated tau is readily sequestered into aggregates and generates intracellular neurofibrillary tangles (“tau tangles”). […] The top drugs were tested for impact on tau hyperphosphorylation in rat cortical cells (FIG. 23).
Primary cultures were established from cerebral cortex of E18 rats; under serum-free conditions (Neurobasal/B27) these cultures contain ˜85% neurons, with the remainder comprising astrocytes (˜12% and microglia ˜3%). At the […], triplicate cultures were exposed to the test compounds at the indicated concentrations; a separate triplicate was exposed to vehicle (0.5% DMSO final concentration). After 24 h, cultures were washed once with ice-cold PBS and then scraped in RIPA buffer containing inhibitors of proteases and phosphatases. Lysates were centrifuged at 14,000 g at 4° C. for 7 min. Supernatants were removed and stored at −80° C. after removal of small aliquots for determination of protein concentration by BCA. Samples equilibrated for total protein were analyzed by Wes™ capillary-gel immunodetection (ProteinSimple) using the AT8 clone of anti-phosphoTau (Invitrogen MN 1020) or total Tau (ABclonal A0002). Detected antigen was calculated by peak area (automated peak fit), and values are reported as AT8 normalized to total Tau.

- ability to inhibit GSK3β activity in vitro (GSK3β): markedly superior to TDZD8
Compound: O=c1sn(CCI)c(=O)n1Cc1ccccc1 [PNR-962]
- protein aggregation (SH-SY5Y-APPSw cells; 5 μM (FIG. 4)): reduces protein aggregation
- further lowering of total amyloid-staining intensity relative to TDZD-8 (SH-SY5Y-APPSw cells; data not shown): 14%
- paralysis rescued / reduced (C. elegans strain CL4176): > 75%
- tau hyperphosphorylation (tau hyperphosphorylation): suppression of tau hyperphosphorylation
